Here are results for four molecules from ChEMBL document CHEMBL1681692, “Identification of new GATA4-small molecule inhibitors by structure-based virtual screening” (Bioorg Med Chem, 2011).

The nature of series [1]: Lipophilicity, log P of compound. In kind it is physicochemical. The following applies: octanol/water.
Series [2] concerns HeLa. Description: Cytotoxicity in human HeLa cells assessed as effect on cell proliferation upto 150 uM. Format: cell-based.
In series [3] the target is Transcription factor GATA-4 (Homo sapiens) (UniProt P43694). In words: Inhibition of GATA4-DNA interaction in HEK293 nuclear extract at 100 uM after 15 mins by EMSA assay. Format: cell-free. (In general: In EMSA bound probe runs differently from free probe, usually more slowly.)
Sequence of Transcription factor GATA-4 (Homo sapiens) (P43694 whole entry): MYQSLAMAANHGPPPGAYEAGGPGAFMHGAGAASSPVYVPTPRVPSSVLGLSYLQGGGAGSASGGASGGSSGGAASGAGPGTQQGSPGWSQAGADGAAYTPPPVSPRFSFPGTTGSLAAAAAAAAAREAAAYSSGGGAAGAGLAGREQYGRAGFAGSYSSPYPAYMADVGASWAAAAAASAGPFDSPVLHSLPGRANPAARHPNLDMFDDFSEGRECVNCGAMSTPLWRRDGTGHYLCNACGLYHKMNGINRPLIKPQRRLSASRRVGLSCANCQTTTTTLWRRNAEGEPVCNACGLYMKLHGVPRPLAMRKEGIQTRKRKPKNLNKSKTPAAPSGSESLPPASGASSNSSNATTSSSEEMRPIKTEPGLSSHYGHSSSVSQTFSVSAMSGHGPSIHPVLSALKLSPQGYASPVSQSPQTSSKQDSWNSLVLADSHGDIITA
The test system of series [4] is HEK293. In words: Cytotoxicity in human HEK293 cells assessed as cell death upto 150 uM. In kind it is cell-based.
In series [5] the target is Transcription factor GATA-4 (Mus musculus) (UniProt Q08369). In words: Inhibition of GATA4 in mouse C2C12 cells assessed as myoblast differentiation to myotubes at 100 uM after 48 hrs by immunofluorescence assay in presence of 20 % FBS relative to control. Format: cell-based.
Sequence of Transcription factor GATA-4 (Mus musculus) (Q08369 whole entry): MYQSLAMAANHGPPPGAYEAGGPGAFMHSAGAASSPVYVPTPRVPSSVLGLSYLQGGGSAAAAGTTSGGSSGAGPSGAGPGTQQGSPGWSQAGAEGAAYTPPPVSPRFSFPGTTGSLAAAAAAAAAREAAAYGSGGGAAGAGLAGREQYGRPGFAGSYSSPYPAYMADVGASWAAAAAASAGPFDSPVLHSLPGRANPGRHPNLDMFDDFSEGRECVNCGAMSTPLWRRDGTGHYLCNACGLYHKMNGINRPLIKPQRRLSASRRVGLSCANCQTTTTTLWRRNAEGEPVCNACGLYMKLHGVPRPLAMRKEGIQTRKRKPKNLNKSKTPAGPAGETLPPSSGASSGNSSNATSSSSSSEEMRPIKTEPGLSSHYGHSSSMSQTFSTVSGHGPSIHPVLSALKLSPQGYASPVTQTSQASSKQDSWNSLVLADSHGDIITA
For series [6], the target named is T1, T-box transcription factor TBX5 (Homo sapiens) (UniProt Q99593).
T1 sequence (whole entry): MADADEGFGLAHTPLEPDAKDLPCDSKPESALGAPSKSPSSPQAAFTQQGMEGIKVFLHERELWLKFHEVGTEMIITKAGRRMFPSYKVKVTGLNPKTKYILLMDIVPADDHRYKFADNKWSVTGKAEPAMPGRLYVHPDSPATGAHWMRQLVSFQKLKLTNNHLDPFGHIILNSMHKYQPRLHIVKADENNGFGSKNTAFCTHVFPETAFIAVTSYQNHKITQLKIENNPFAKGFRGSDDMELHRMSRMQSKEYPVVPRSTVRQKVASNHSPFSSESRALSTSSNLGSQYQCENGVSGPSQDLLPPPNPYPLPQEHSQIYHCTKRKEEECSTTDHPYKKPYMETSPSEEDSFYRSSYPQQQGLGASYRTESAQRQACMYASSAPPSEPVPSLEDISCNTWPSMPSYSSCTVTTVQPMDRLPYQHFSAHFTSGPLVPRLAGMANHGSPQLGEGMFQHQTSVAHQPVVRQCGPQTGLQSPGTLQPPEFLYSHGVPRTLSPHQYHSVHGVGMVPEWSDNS
In words: Effect on Tbx5 in HEK293 nuclear extract at 50 uM after 15 mins by EMSA assay.

For series [7], the system named is C2C12. Description: Cytotoxicity in mouse C2C12 cells assessed as cell death upto 150 uM. In kind it is cell-based.
Series [8] has as its target Transcription factor GATA-4 (Homo sapiens) (UniProt P43694). Description: Inhibition of GATA4-DNA interaction in HEK293 nuclear extract at 150 uM after 15 mins by EMSA assay. Format: cell-free.
The subject of series [9] is HeLa. In words: Cytotoxicity in human HeLa cells assessed as cell death upto 150 uM. Format: cell-based.
Series [10] deals with HeLa. Description: Drug uptake in human HeLa cells after 24 hrs. In kind it is ADME, cell-based.
Series [11] deals with Transcription factor GATA-4 (Mus musculus) (UniProt Q08369). Description: Inhibition of GATA4- DNA interaction in mouse C2C12 cells at 100 uM after 24 hrs by EMSA assay. In kind it is cell-based.
The target of series [12] is Transcription factor GATA-4 (Homo sapiens) (UniProt P43694). In words: Inhibition of GATA4- mediated BNP promoter activation in HeLa cells at 100 uM after 24 hrs by luciferase reporter gene assay. Format: cell-based. (In general: In a reporter assay the amount or activity of a reporter protein is the signal.)
Series [13] has as its system C2C12. Description: Cytotoxicity in mouse C2C12 cells assessed as effect on cell proliferation upto 150 uM. In kind it is cell-based.
Series [14] deals with T2, Nuclear factor of activated T-cells, cytoplasmic 1 (Homo sapiens) (UniProt O95644).
T2 sequence (whole entry): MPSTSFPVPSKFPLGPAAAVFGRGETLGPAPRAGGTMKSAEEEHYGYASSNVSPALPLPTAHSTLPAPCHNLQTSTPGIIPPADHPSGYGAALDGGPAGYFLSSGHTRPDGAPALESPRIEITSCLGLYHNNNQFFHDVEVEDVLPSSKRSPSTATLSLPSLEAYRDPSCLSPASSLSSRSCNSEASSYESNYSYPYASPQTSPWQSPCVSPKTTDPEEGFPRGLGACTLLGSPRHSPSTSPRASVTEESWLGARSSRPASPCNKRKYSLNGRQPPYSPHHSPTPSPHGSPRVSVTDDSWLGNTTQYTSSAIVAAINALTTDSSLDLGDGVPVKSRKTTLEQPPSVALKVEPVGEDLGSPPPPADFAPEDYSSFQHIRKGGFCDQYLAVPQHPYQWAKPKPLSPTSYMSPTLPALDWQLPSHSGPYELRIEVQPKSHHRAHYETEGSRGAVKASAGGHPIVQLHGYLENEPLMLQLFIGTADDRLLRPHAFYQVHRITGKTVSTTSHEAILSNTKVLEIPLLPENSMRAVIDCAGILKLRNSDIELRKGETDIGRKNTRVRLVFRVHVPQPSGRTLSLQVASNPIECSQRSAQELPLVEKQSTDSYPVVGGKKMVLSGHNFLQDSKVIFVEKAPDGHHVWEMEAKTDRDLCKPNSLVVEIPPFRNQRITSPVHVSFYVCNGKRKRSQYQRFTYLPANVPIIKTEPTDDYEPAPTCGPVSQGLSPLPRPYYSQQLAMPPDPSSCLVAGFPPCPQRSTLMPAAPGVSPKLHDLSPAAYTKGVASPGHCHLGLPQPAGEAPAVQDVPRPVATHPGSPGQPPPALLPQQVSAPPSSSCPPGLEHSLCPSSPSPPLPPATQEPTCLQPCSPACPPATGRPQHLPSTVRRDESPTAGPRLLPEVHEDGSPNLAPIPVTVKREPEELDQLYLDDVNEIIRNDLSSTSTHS
In words: Effect on NFATc1 in HEK293 nuclear extract at 50 uM after 15 mins by EMSA assay.

The target in series [15] is Transcription factor GATA-4 (Mus musculus) (UniProt Q08369). In words: Inhibition of GATA4 in mouse C2C12 cells assessed as myoblast differentiation to myotubes at 100 uM after 48 hrs by immunofluorescence assay in presence of 0.5% FBS relative to control. In kind it is cell-based.
Series [16] deals with Transcription factor GATA-4 (Homo sapiens) (UniProt P43694). Description: Inhibition of GATA4-DNA interaction in HEK293 nuclear extract at 50 to 150 uM after 15 mins by EMSA assay.
Series [17] shares this target. In words: Inhibition of GATA4-DNA interaction in HEK293 nuclear extract at 50 uM after 15 mins by EMSA assay. In kind it is cell-free.
For series [18], the system named is HEK293. Description: Cytotoxicity in human HEK293 cells assessed as effect on cell proliferation upto 150 uM. In kind it is cell-based.

By logP is commonly meant the decadic logarithm of the partition coefficient of the neutral form, usually between octanol and water. Read a low logP as a more hydrophilic compound. In general, inhibition refers to the relative decrease from the control value, in per cent.

Active and inactive are the calls of the source. The rule behind the calls is not given here.

In [1], `Cc1cc(C(=O)O)c(C(=O)O)c(O)n1` registered a logP of under 0. Besides, the Activity entry in the series with HeLa [2], with HEK293 [4], with C2C12 [7], in the series with HeLa [9], in the series on C2C12 [13] and in the series on HEK293 [18] was “Non-toxic” each time. Moreover, the inhibition entry in series [3], in series [11] and in series [17] was “Active” throughout. Besides, the inhibition result in series [5] and in series [15] was “inactive” throughout. In addition, the outcome in [6] and in series [14] was inactive. Also, the inhibition in series [8] is 70%; in [12] it was 35%; in series [16], “Dose-dependent effect”. The Drug uptake result in the series on HeLa [10] was “Active”.

The molecule `O=C(O)c1cc(C(=O)O)cc(S(=O)(=O)NCCO)c1` displayed a logP in [1] of under 0. The Activity result with HeLa [2], with HEK293 [4], in the series with C2C12 [7], in the series on HeLa [9], with C2C12 [13] and in the series on HEK293 [18] was “Non-toxic” each time. In addition, the inhibition entry in series [3], in series [5], in series [11], in [15] and in [17] was “Active” throughout. The result in series [6] and in [14] was inactive. Besides, the inhibition in series [8] is 70%; in series [16] it was “Dose-dependent effect”. Also, the Drug uptake entry in the series on HeLa [10] is recorded as “Not Active”. In [12], the inhibition entry was “inactive”.

`O=C(O)CC(Cc1ccc2c(c1)OCO2)C(=O)O` (stereo unspecified) returned a logP in series [1] of under 0. For the same molecule, the Activity entry with HeLa [2], with HEK293 [4], in the series on C2C12 [7], with HeLa [9], in the series on C2C12 [13] and with HEK293 [18] was “Non-toxic” in each case. The inhibition entry in [3], in series [5], in [11] and in series [15] was “Active” each time. The outcome in series [6] and in series [14] was inactive. For the same molecule, in the series with HeLa [10], the Drug uptake result is “Active”. Also, the inhibition in [12] is 35%; in series [16], “Dose-dependent effect”; in [17], 60%.

The molecule `NC(=O)c1ncn([C@@H]2O[C@H](COP(=O)(O)O)[C@@H](O)[C@H]2O)n1` [RIBAVIRIN MONOPHOSPHATE] came in with a logP in [1] of under 0. Moreover, the Activity entry with HeLa [2], with HEK293 [4], in the series with C2C12 [7], in the series on HeLa [9], in the series on C2C12 [13] and in the series on HEK293 [18] was “Non-toxic” throughout. In addition, the inhibition entry in series [3], in series [11] and in [17] was “Active” in each case. The inhibition entry in [5] and in series [15] was “inactive” in each case. Moreover, the outcome in [6] and in series [14] was inactive. In addition, the inhibition was 70% in series [8], 16% in series [12] and “Dose-dependent effect” in series [16]. In addition, the Drug uptake entry with HeLa [10] is given as “Active”.
